pIC50: −log10 of the molar value. Positions of bridges follow the written chain, without caps; N, C: chain ends. Residues, ends and D or L forms follow the SMILES beside them. Chains are numbered I, II in the order given. *: point of attachment. FITC = O=C1OC2(c3ccc(O)cc3Oc3cc(O)ccc32)c2ccc(NC(=S)*)cc21
Tests used:
CCL8_HUMAN = target: T1, CCL8_HUMAN (Homo sapiens, UniProt P80075); experiment: Neutralisation of chemokine induced THP-1 cell migration; format: cell-based
T1 sequence (P80075 24-99): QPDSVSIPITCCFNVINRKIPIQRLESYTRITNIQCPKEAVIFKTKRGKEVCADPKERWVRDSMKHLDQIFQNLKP
Procedure: Table 1. Tick CKBPs described in PCT/GB2017/050563 and [17]. Tick peptide sequences isolated in yeast surface display fluorescent-activated cell sorting (FACS) screens using a labelled chemokine. Identity with Evasin-1, 4 or 3 was calculated using BLAST. Abbreviations: IXORI—Ixodes ricinus, RHISA—Rhipicephalus sanguineus, AMBMA—Amblyomma maculatum, AMBPA—Amblyomma parvum, AMBTR—Amblyomma triste, AMBAM—Amblyomma americanum, AMBCA—Amblyomma cajennense, RHIPU—Rhipicephalus pulchellus. Table 2A-C. Binding characteristics of tick CKBPs previously disclosed (PCT/GB2017/050563 and [17]). All members of the human chemokine family[164] are listed in column 1. Binding to human chemokines was determined for 14 tick CKBPs using biolayer interferometry (BLI) with calculated Kd shown as Molar (Moles/Litre). Binding data for 17 other novel tick CKBPs was assayed using yeast surface display[17,166],with positive binding results shown as “YES”. For biolayer interferometry, His-tagged purified tick CKBP was bound to a Ni-NINTA sensor on an OctetRed® 384 system, and then binding to each chemokine listed (with the exception of CCL25, CCL26, CXCL16, CXCL17, CXCL4L1, XCL2) was assayed in a cross-binding screen at a chemokine concentration of 300 nM as described. For those chemokines showing binding to a tick CKBP in the cross-binding screen, binding assays were repeated using different doses of chemokine. Association, equilibrium and dissociation data were analysed using Octet software to create corresponding fitted curves, and used to calculate Kd. For yeast surface display, (YSD) background fluorescence was controlled for by using either an empty vector or by omitting the chemokine (i.e. using streptavidin-Alexa647 alone). An arbitrary threshold of >3 fold over background mean fluorescence intensity was chosen to describe confirmed re-tests. Where binding was detected data are indicated as “YES”. […] For yeast surface display data, empty cells represent chemokines that were not tested. Binding data published in relation to previously described tick CKBPs (Evasins-1, 4 and 3) is also shown for comparison in each of FIGS. 2A-C, with the relevant data obtained from publications: [20-22,32]. Table 3: Neutralisation of human chemokines by tick CKBPs previously disclosed (PCT/GB2017/050563 and [17]). Neutralising activity was determined using a quantitative THP1 cell migration assay in a 96-well Boyden chamber with chemokine in the bottom chamber as described. Cells migrating through to the bottom chamber at 4 hours were counted using flow cytometry in a 96 well plate format. IC50 for neutralisation was determined at the chemokine EC80 dose as determined using a range of tick CKBP concentrations. Data was analysed using GraphPad Prism to determine IC50, which is shown as Molar (Moles/Litre). Empty cells represent experiments not done. Table 4—Other previously described tick CKBPs. Tick CKBPs that were also described in PCT/GB2017/050563 and Singh et al. are indicated in “Notes”. Table 5.—Novel tick CKBPs of the invention. Table 6. […] The peptide sequence prefix indicates the identity, and suffix indicate the tick species as follows: AMBCA, Amblyomma cajennense and IXORI, Ixodes ricinus. […] Individual yeast clones recovered from the library were re-tested using a FACS (fluorescence activated cell sorting), experiment. The binding of the peptide to the chemokine was assayed by measuring the percent (%), of yeast cells expressing the given peptide that exceeded a background threshold set by measuring the fluorescence of the yeast library pool treated with streptavidin-[…] alone. When more than one independent yeast clone was isolated for a given peptide-chemokine combination, the mean percent shift was calculated and reported in column 3.

human CCL8-647 = target: T2, human CCL8-647 (Homo sapiens, UniProt P80075); experiment: Fluorescent chemokine binding to THP-1 cells (flow cytometry); format: cell-based
T2 construct: purchased Almac (UK)
T2 sequence (P80075 24-99): T1 sequence (P80075 24-99)
Procedure: P672_PEP_SCRAM (C-terminally amidated)=[…] FIG. 16(A). […] 60 μM (+) P672_PEP or P672_PEP_SCRAM were incubated with CCL8-647 (2.5 nM) for half an hour at 37° C. prior to adding to THP-1 cells and incubating everything together for a further half an hour at 37° C. Cells were then analysed using fluorescence assisted cell sorting (10,000 cells analysed) and MFI recorded. Experiment carried out in triplicate where each data point is the average of one experiment carried out in technical triplicate. Mean with SEM shown and statistical significance was determined using one-way ANOVA with Sidak's correction for multiple comparisons using Graph Pad Prism 6. ****=P<0.00005, ns=not significant.
Data are shown as mean of two technical replicates. […] Curves were fitted with 4 parameters to estimate IC50.
Fluorescent chemokine (conjugated to AlexaFluor-647) binding to THP-1 cells results in an increase in the cellular fluorescence intensity, which is quantitatively measured using flow cytometry.
Fluorescent Chemokine/Receptor Blocking Assay CCL8-647 (2.5 nM, final) or […] (1.2 nM, final) was incubated for 30 minutes with varying doses of peptide (0-100 μM, final concentration) in 50 μL assay buffer (RPMI-1640+L-glutamine (4 mM)+10% heat treated fetal bovine serum+0.2% DMSO) at 37° C. […]

CCL8 = target: T3, CCL8 (Homo sapiens, UniProt P80075); experiment: Fluorescence polarisation (anisotropy) assay; format: binding; conditions: BK1.1FITC Ala mutants, CCL8
T3 construct: SUMO (in-house protein only) (cleaved yes); made in house; host or cells: Escherichia coli RosettaGami 2 (DE3)
T3 sequence (P80075 24-99): T1 sequence (P80075 24-99)
From the text: FIG. 14. Characterisation of P672_PEP-FITC by fluorescence polarisation. […] Residue C30 was mutated to A to avoid an unpaired cysteine residue. The residues corresponding to the above peptide are wholly contained within the CCL8-binding region of P672_RHIPU transferred in the hybrid evasin P672:EVA1 (SEQ ID 76, see FIG. 5). […] (SEQ ID NO: 90). FIG. 14(A). […] The curve was fitted to the two site-total and non-specific binding model in GraphPad Prism 6. Data are shown as mean and SEM of three independent experiments, with each independent experiment performed as three technical replicates. The affinity constant Kd was calculated in GraphPad Prism from the curve fit with the standard error reported.
FIG. 14(B). […] The measured fluorescence anisotropy (y-axis) of P672_PEP-FITC (50 nM) following binding to a fixed dose (1 μM)) of CCL7, CCL8, CCL18 and CXCL1 (negative control). […] Statistical significance was determined using one-way ANOVA with Sidak's correction for multiple comparisons using Graph Pad Prism 6. **=p<0.005, ****=P<0.00005, ns=not significant.
FIG. 15(C). […] In each case 100 μM (++) or […] (+) of P672_PEP was incubated with P672_PEP-FITC (50 nM)/chemokine (1 μM CCL7 and CCL18; 500 nM CCL8) and the resulting anisotropy measured. […] Experiment carried out in triplicate where each data point is the average of one experiment carried out in technical triplicate. Mean with SEM shown and statistical significance was determined using one-way ANOVA with Sidak's correction for multiple comparisons using Graph Pad Prism 6. *=p<0.05, ***=p<0.0005, ****=P<0.00005, ns=not significant.
Fluorescence polarization assays were performed using a Clariostar (BMG Tech) plate reader with the supplied FITC excitation and emission filters using 96 half area well plates (Corning). The buffer used (FP assay buffer) was 50 mM HEPES, 150 mM NaCl, 0.1% BSA, 0.002% TWEEN-20, 0.2% DMSO, pH 7.4 and the final volume in each well was 30 μL. Polarization was converted to anisotropy using the equation A=(2*P)/(3−P) where P is polarization and A is anisotropy. For each peptide tested the gain was set to 35 mP and adjusted to a well containing fluorescent peptide only. The polarization of the emitted light in the FITC emission channel was then determined. Experiments were performed as two technical and three biological replicates. Screening of P672 peptide fragments was achieved through incubation of each peptide (50 nM) with 1 μM CCL8 (Peprotech) for 30 minutes in FP assay buffer and the resulting anisotropy of the emitted light determined as above. The chemokine cross binding screen was performed by incubating 1 μM chemokine (Peprotech) with 50 nM BK1.1FITC for half an hour in FP assay buffer and the resulting anisotropy of the emitted light determined as above. […] The anisotropy was plotted as a function of CCL8 concentration and fitted to the equation: Y=Bmax*X/(KD+X)+NS*X+Background, where Y is the measured anisotropy, X is the concentration of CCL8 added, Bmax is the maximum binding, KD is the equilibrium dissociation constant, NS is the slope of the nonlinear regression and Background is the anisotropy when no CCL8 is present, in Graph Pad Prism. Displacement assays were carried out with CCL7, CCL8, and CCL18 (Peprotech, 1 μM). […] For all FP assays, the experiments were carried out as two technical and three biological replicates.

| Compound | pIC50 (CCL8_HUMAN) | pIC50 (human CCL8-647) | Fold change (Kd versus WT) (CCL8) |
| --- | --- | --- | --- |
| CC(C)[C@H](NC(=O)[C@@H]1CCCN1C(=O)[C@H](CCCCN)NC(=O)[C@H](Cc1ccccc1)NC(=O)[C@H](Cc1ccccc1)NC(=O)[C@H](CC(=O)O)NC(=O)[C@H](CCC(=O)O)NC(=O)[C@H](Cc1ccc(O)cc1)NC(=O)[C@H](CC(=O)O)NC(=O)[C@H](CCC(=O)O)NC(=O)[C@H](CC(=O)O)NC(=O)[C@H](CCC(=O)O)NC(=O)[C@@H](N)Cc1ccc(O)cc1)C(=O)N[C@H](C(=O)N[C@@H](CSSC[C@H](NC(=O)[C@@H](NC(=O)[C@@H](NC(=O)[C@@H]1CCCN1C(=O)[C@H](CCCCN)NC(=O)[C@H](Cc1ccccc1)NC(=O)[C@H](Cc1ccccc1)NC(=O)[C@H](CC(=O)O)NC(=O)[C@H](CCC(=O)O)NC(=O)[C@H](Cc1ccc(O)cc1)NC(=O)[C@H](CC(=O)O)NC(=O)[C@H](CCC(=O)O)NC(=O)[C@H](CC(=O)O)NC(=O)[C@H](CCC(=O)O)NC(=O)[C@@H](N)Cc1ccc(O)cc1)C(C)C)[C@@H](C)O)C(=O)N[C@@H](Cc1ccc(O)cc1)C(=O)N[C@@H](Cc1ccccc1)C(N)=O)C(=O)N[C@@H](Cc1ccc(O)cc1)C(=O)N[C@@H](Cc1ccccc1)C(N)=O)[C@@H](C)O [BK1.3] (I: H-YEDEDYEDFFKPVTCYF-NH2 / II: H-YEDEDYEDFFKPVTCYF-NH2; disulfide I:15-II:15) | 8.10 | 7.33 | – |
| C[C@H](NC(=O)[C@@H](NC(=O)[C@H](C)NC(=O)[C@@H]1CCCN1C(=O)[C@H](CCCCN)NC(=O)[C@H](Cc1ccccc1)NC(=O)[C@H](Cc1ccccc1)NC(=O)[C@H](CC(=O)O)NC(=O)[C@H](CCC(=O)O)NC(=O)[C@H](Cc1ccc(O)cc1)NC(=O)[C@H](CC(=O)O)NC(=O)[C@H](CCC(=O)O)NC(=O)[C@H](CC(=O)O)NC(=O)[C@H](CCC(=O)O)NC(=S)Nc1ccc2c(c1)C(=O)OC21c2ccc(O)cc2Oc2cc(O)ccc21)[C@@H](C)O)C(=O)N[C@@H](Cc1ccc(O)cc1)C(=O)N[C@@H](Cc1ccccc1)C(N)=O [V28A] ({FITC}-EDEDYEDFFKPATAYF-NH2) | – | – | 3.8 |
| CC(C)[C@H](NC(=O)[C@@H]1CCCN1C(=O)[C@H](CCCCN)NC(=O)[C@H](Cc1ccccc1)NC(=O)[C@H](Cc1ccccc1)NC(=O)[C@H](CC(=O)O)NC(=O)[C@H](CCC(=O)O)NC(=O)[C@H](C)NC(=O)[C@H](CC(=O)O)NC(=O)[C@H](CCC(=O)O)NC(=O)[C@H](CC(=O)O)NC(=O)[C@H](CCC(=O)O)NC(=S)Nc1ccc2c(c1)C(=O)OC21c2ccc(O)cc2Oc2cc(O)ccc21)C(=O)N[C@H](C(=O)N[C@@H](C)C(=O)N[C@@H](Cc1ccc(O)cc1)C(=O)N[C@@H](Cc1ccccc1)C(N)=O)[C@@H](C)O [Y21A] ({FITC}-EDEDAEDFFKPVTAYF-NH2) | – | – | 4.7 |
| CC(C)[C@H](NC(=O)[C@@H]1CCCN1C(=O)[C@H](CCCCN)NC(=O)[C@H](Cc1ccccc1)NC(=O)[C@H](Cc1ccccc1)NC(=O)[C@H](CC(=O)O)NC(=O)[C@H](CCC(=O)O)NC(=O)[C@H](Cc1ccc(O)cc1)NC(=O)[C@H](CC(=O)O)NC(=O)[C@H](CCC(=O)O)NC(=O)[C@H](CC(=O)O)NC(=O)[C@H](CCC(=O)O)NC(=S)Nc1ccc2c(c1)C(=O)OC21c2ccc(O)cc2Oc2cc(O)ccc21)C(=O)N[C@H](C(=O)N[C@@H](C)C(=O)N[C@@H](C)C(=O)N[C@@H](Cc1ccccc1)C(N)=O)[C@@H](C)O [Y31A] ({FITC}-EDEDYEDFFKPVTAAF-NH2) | – | – | 3.8 |

Reference: patent publication US20200247855A1, “THERAPY AND DIAGNOSTICS” (OXFORD UNIVERSITY INNOVATION LIMITED, priority 2017, published 2020)
